Results: paper PMC11699688, “Unravelling the outcome of L-glutaminase produced by Streptomyces sp. strain 5 M as an anti-neoplasm activity” (Microbial Cell Factories, 2025)

Test system: T1, L-glutaminase
T1 construct: native extracellular enzyme purified from culture (ammonium sulfate, DEAE-cellulose, Sephacryl S-300); 52 kDa by SDS-PAGE (54 kDa in discussion); monomer
Test: steady-state kinetics, ammonia release by Nesslerization
Type: biochemical, Streptomyces sp. 5 M
Conditions: substrate 2-5 mM; pH and temperature of the kinetic run not printed (optimum pH 7.5, 40 °C)
Source text: steady-state kinetics, ammonia release by Nesslerization on L-glutaminase | the purified L-glutaminase from Streptomyces sp.

Km: 2620 µM
SMILES: NC(=O)CC[C@H](N)C(=O)O [L-glutamine]
